Source: patent publication US10449216B2, “Modulating drug effects against metabotropic glutamate receptor with extracellular calcium” (GEORGIA STATE UNIVERSITY RESEARCH FOUNDATION, INC., priority 2013, dated 2019)

Assays:
mGluR5 [1] = target: mGluR5 (Rattus norvegicus, UniProt P31424); details: mGluR5, Sp. Rn; cited from earlier work
mGluR1 = mGluR1 (Rattus norvegicus, UniProt P23385); details: mGluR1, Sp. Rn; cited from earlier work
WT mGluR1α = target: T1, WT mGluR1α (Rattus norvegicus, UniProt P23385); experiment: Single cell Fura-2 [Ca^2+]i response in HEK293 cells transiently transfected with WT mGluR1α; format: cell-based
T1 construct: expressed in transfected cells; host or cells: HEK293
Description: The methods for measuring [Ca^2+]i responses were as described above. In the presence of (s)-MCPG, the cells were incubated with 0.5 mM (s)-MCPG in a saline buffer for 30 more minutes after Fura-2 loading.
Fura-2AM was used for monitoring [Ca^2+]i in real time as described above. […] Cells loaded with Fura-2AM were mounted onto a chamber perfused with saline buffer.

mGluR5 [2] = target: mGluR5 (Homo sapiens, UniProt P41594); details: mGluR5, Sp. Hs; cited from earlier work
mGluR5 (Homo sapiens, UniProt P41594), sequence (P41594 21-1212): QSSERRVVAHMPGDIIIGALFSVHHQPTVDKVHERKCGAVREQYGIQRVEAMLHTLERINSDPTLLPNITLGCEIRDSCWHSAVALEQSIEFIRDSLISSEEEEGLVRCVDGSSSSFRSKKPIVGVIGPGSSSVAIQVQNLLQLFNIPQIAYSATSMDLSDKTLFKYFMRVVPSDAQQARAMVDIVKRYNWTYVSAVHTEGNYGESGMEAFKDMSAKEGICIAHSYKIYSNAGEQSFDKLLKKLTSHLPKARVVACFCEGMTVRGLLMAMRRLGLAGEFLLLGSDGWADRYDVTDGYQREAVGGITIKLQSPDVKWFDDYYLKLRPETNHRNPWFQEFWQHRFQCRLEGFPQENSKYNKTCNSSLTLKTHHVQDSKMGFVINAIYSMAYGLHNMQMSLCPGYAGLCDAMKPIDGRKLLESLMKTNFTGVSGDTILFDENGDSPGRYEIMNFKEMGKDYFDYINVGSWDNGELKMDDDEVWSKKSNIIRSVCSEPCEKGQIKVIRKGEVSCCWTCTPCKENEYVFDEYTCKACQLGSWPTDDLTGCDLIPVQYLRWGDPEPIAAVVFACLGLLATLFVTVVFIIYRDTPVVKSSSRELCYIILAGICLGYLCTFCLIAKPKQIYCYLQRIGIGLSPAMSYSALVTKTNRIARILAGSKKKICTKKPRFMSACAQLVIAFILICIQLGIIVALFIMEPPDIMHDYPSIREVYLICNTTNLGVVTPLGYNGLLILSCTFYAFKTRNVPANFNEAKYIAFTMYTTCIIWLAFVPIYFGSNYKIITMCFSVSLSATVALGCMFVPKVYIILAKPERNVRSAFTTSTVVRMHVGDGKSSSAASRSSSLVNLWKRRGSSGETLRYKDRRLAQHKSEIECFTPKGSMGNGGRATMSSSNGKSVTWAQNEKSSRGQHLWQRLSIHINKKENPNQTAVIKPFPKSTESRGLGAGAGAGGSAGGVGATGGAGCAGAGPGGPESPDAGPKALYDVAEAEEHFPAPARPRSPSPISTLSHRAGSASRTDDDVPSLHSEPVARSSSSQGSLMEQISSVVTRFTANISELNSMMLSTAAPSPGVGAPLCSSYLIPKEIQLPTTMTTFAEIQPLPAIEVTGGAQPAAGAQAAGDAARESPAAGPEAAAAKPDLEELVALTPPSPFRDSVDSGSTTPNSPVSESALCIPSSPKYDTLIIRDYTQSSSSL

mGluR5 (Rattus norvegicus, UniProt P31424), sequence (P31424 21-1203): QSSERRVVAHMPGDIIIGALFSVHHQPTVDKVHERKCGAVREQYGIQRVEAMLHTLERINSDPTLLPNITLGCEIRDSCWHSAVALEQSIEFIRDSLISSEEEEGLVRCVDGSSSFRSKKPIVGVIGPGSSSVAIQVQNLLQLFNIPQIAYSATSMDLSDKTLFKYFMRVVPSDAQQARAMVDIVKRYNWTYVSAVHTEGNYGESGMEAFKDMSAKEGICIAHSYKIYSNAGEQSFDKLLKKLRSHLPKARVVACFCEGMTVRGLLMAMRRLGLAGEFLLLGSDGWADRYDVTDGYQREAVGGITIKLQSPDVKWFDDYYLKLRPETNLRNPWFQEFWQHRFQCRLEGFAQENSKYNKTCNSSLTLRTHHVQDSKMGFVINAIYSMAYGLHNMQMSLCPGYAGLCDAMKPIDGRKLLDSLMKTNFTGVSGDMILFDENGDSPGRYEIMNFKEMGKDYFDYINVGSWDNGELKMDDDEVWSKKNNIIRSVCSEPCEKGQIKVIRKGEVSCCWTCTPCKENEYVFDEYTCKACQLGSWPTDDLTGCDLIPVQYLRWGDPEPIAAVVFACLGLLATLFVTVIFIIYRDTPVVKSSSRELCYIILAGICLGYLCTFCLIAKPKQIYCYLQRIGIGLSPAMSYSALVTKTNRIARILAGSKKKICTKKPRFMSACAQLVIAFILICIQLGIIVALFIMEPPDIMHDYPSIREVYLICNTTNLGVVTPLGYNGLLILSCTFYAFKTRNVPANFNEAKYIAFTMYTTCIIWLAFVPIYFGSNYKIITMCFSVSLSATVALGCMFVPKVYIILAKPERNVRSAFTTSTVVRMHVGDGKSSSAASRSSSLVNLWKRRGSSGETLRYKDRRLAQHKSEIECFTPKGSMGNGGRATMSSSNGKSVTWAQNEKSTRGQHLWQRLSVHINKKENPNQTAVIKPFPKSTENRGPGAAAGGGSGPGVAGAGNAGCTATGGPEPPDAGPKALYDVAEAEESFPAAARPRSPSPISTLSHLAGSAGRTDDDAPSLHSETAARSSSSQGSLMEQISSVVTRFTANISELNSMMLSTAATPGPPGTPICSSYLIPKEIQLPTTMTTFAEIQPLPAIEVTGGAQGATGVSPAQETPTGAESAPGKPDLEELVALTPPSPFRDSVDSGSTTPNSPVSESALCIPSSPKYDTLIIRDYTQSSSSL
mGluR1, sequence (P23385 19-1199): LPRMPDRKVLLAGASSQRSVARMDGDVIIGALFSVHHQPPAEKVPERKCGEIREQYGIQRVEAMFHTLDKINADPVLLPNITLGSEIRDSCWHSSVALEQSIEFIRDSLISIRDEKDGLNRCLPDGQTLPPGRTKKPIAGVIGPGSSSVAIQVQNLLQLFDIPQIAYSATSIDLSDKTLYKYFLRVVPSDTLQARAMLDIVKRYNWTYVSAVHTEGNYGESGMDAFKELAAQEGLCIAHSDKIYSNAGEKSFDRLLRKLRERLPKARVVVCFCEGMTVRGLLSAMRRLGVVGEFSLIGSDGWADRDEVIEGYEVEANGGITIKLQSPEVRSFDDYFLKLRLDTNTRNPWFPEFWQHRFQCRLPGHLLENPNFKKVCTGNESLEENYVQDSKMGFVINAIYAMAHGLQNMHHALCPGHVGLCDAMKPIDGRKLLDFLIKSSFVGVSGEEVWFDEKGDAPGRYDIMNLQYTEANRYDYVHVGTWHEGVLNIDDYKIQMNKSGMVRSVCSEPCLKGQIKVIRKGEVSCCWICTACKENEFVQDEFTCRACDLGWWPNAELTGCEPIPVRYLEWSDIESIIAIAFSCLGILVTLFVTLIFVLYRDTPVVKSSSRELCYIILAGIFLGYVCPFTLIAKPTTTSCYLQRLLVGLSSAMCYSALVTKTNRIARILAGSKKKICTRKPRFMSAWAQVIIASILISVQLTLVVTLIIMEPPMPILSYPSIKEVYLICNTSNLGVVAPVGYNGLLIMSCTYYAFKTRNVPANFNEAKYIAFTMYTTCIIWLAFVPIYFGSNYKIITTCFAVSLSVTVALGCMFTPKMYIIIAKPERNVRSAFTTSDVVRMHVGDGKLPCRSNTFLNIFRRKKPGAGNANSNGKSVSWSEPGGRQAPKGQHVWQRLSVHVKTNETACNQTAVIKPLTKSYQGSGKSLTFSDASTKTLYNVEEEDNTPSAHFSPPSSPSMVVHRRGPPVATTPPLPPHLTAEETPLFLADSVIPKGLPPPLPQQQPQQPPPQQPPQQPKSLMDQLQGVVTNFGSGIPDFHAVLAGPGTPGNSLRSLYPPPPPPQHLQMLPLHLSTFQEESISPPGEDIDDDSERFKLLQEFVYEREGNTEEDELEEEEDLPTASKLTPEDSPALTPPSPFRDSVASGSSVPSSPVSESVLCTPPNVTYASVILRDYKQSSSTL
T1 sequence (P23385 19-1199): as above

SMILES	Affinity (pIC50) (mGluR5 [1])	Affinity (pKi) (mGluR1)	Affinity (pIC50) (mGluR1)	further results
NC(C(=O)O)c1cc(O)cc(O)c1 (centres unmarked) [3,5-DHPG]	5.4	5.8 pKi		
CCCOC(=O)c1[nH]c(C)c(C(=O)OC(C)C(C)(C)C)c1C (centres unmarked) [3,5-dimethyl PPP]			7.8 pIC50	
Cc1cc(C(=O)O)sc1C(N)C(=O)O (centres unmarked) [3-MATIDA]			5.2 pIC50	
N[C@@]1(C(=O)O)CC[C@@H](C(=O)O)C1 [(1S,3R)-ACPD]	5.7			
N[C@H](C(=O)O)c1cccc(O)c1 [(S)-3HPG]	5		4.9 pIC50	
N[C@H](C(=O)O)c1ccc(C(=O)O)cc1 [(S)-4CPG]	4.6	5.4 pKi		
N[C@H](C(=O)O)C12CC(C(=O)O)(C1)C2 [(S)-(+)-CBPG]			4.2 pIC50	
N[C@H](C(=O)O)C12CC(c3nn[nH]n3)(C1)C2 [(S)-TBPG]			4.2 pIC50	
C[C@@](N)(C(=O)O)c1ccc(C(=O)O)cc1 [(s)-MCPG, (S)-α-Methyl-4-carboxyphenylglycine]	3.7	3.8 pKi		Inhibition of activation of mGluR1α by L-Glu (WT mGluR1α; 1.5 mM (s)-MCPG, 5 μM L-Glu): entirely blocks; Inhibition of responsiveness of mGluR1α to [Ca^2+]o (WT mGluR1α; 2.0 mM MCPG, 5 mM [Ca^2+]o): does not completely inhibit
CN(C)c1nc(N)c(C(=O)Nc2ccccn2)nc1Cl [ACDPP]				Affinity (pIC50) (mGluR5 [2]): 6.9 pIC50
O=C(c1ccc(F)cc1)N1CCC[C@H](c2nc(-c3ccc(F)cc3)no2)C1 [ADX-47273]	6.5			
C=C1C[C@@H]2COC(=O)[C@]2(Cc2ccc3ccccc3c2)C1 [BAY 367620]			6.8-8.0 pIC50	
COc1cc(-c2nc3ccccc3o2)ccc1CC#N [BOMA]				Affinity (pKi) (mGluR5 [2]): 8.5 pKi
NC(C(=O)O)c1cc(O)ccc1Cl (centres unmarked) [CHPG]				Affinity (pIC50) (mGluR5 [2]): 3.4 pIC50
N[C@H](C(=O)O)C1[C@@H](C(=O)O)[C@@H]1C(=O)O (some centres unmarked) [DCG-IV]	4.7	4.1 pKi		
Fc1cccc(/C=N/N=C/c2cccc(F)c2)c1 [DFB]				Affinity (pIC50) (mGluR5 [2]): 5.6-8.5 pIC50
CCCOC(=O)c1[nH]c(C)c(C(=O)O[C@@H](C)C(C)(C)C)c1C [DM-PPP]			7.8 pIC50	
CCn1c(C)nc(N2CCc3ccccc3CC2)c(C#N)c1=O [EM-TBPC]			6.9 pIC50	
N[C@H](C(=O)O)[C@H]1C[C@@H]1C(=O)O [L-CCG-I]	5.8	5.6 pKi		
Cc1nc(C#Cc2cccc(C#N)c2)cs1 [MTEB]				Affinity (pIC50) (mGluR5 [2]): 8.7 pIC50
O=C(NC12CC3CC(CC(C3)C1)C2)c1cnc2ccccc2n1 [NPS2390]		8.9 pKi		
CCOC(=O)NC(=O)C(c1ccccc1)c1ccccc1 [Ro01-6128]		7.5-7.7 pKi		
Cc1ccc(S(=O)(=O)N2CCC[C@H]2c2ccc(F)cc2)cc1 [Ro67-7476]		7.5-7.9 pKi		
Cc1ccc(O)c(N=Nc2ccccc2)n1 [SIB-1757]				Affinity (pIC50) (mGluR5 [2]): 6.0-6.4 pIC50
Cc1cccc(/C=C/c2ccccc2)n1 [SIB-1893]				Affinity (pIC50) (mGluR5 [2]): 5.9-6.5 pIC50
O=C(Nc1cc(-c2ccccc2)nn1-c1ccccc1F)c1ccc([N+](=O)[O-])cc1 [VU-1545]				Affinity (pEC50) (mGluR5 [2]): 8 pEC50
Cc1c(C(=O)N(C)C2CCCCC2)sc2nc3ccc(N)cc3n12 [YM298198]			7.8 pIC50	
CN1CC(=O)NC1=NC(=O)Nc1cccc(Cl)c1 [fenobam]				Affinity (pIC50) (mGluR5 [2]): 7.2 pIC50
N[C@H](C(=O)O)c1cc(O)no1 [ibotenate]	5.7	5.9-6.4 pKi		
